Assay [1] has as its target T1, Histamine H1 receptor (Homo sapiens, UniProt P35367).
Assay [2] deals with T1, Histamine H1 receptor. The source holds these as a separate data set.
The target in assay [3] is T1, Histamine H1 receptor. Nature of the assay: Intrinsic activity was determined; Tested up to 100 uM: no effects up to 10 uM.
Assay [4] concerns the target T1, Histamine H1 receptor. Nature of the assay: Intrinsic activity; Tested up to 10 uM: no effects up to 1 uM.
Assay [5] has as its target T1, Histamine H1 receptor. Nature of the assay: Intrinsic activity; Tested up to 10 uM: no effects up to 1 uM.
Assay [6] addresses T1, Histamine H1 receptor. Nature of the assay: Intrinsic activity; Tested up to 100 uM: no effects up to 10 uM.

The source of these data is ChEMBL document CHEMBL1145948 (J Med Chem, 2003).

Active and inactive are the calls of the source. No cut-off for these calls is given here.

One may read the IC50 as the midpoint of a concentration-inhibition curve. Lower therefore signals higher potency. In general, EC50 refers to the midpoint of the concentration-response curve. A higher EC50 goes with a need for much substance.

T1 sequence (P35367 whole entry): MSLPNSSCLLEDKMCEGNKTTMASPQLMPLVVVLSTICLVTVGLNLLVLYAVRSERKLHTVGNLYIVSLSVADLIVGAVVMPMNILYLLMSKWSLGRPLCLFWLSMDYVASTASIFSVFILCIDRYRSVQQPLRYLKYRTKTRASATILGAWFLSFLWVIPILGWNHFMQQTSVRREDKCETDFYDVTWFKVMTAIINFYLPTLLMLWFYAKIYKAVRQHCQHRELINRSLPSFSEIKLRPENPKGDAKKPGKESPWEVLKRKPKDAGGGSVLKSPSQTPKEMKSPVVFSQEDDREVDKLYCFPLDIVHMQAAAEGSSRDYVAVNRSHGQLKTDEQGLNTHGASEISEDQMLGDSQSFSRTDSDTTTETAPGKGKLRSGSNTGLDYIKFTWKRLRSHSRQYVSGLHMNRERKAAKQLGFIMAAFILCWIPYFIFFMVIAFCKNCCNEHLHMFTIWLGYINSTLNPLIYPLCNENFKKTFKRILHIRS

Take `NCCc1cnc(CCC(c2ccccc2)c2ccccc2)[nH]1`: the half-maximal inhibitory concentration (IC50) at Histamine H1 receptor [1] is 794 nM.
Turning to `NCCc1c[nH]c(CCCCC(c2ccccc2)c2ccccc2)n1`, at Histamine H1 receptor [2], the Alpha is -0.09.
Take `NCCc1cscn1`: on Histamine H1 receptor [3], the Alpha result is “inactive”.
Compound `CN(C)CCN(Cc1ccccc1)c1ccccn1` [TRIPELENNAMINE] gave an IC50 against Histamine H1 receptor [1] of 39.8 nM. Besides, the Alpha at Histamine H1 receptor [2] was -0.84.
As for `NCCc1c[nH]c(CCC(c2ccccc2)c2ccc(Br)cc2)n1` (stereo not drawn), the Alpha result on Histamine H1 receptor [4] is “inactive”.
As for `c1ncc(CCCCCCCCN2CCCC2)[nH]1`, half-maximal inhibition on Histamine H1 receptor [1] (IC50) required 631 nM.
Compound `NCCCCCCCCc1c[nH]cn1` displayed an Alpha on Histamine H1 receptor [2] of -0.54.
Still for that read-out and setting: to `NCCc1c[nH]c(-c2cccc(C(F)(F)F)c2)n1` belongs 0.91.
`NCCCCCCCCCCc1c[nH]cn1`: the IC50 at Histamine H1 receptor [1] was 501 nM. This compound displayed an Alpha on Histamine H1 receptor [2] of -0.54.
`NCCCCCCCCc1cnc[nH]1` gave an IC50 against Histamine H1 receptor [1] of 3160 nM.
For `Cc1ccc(C(CCc2nc(CCN)c[nH]2)c2ccccc2)cc1` (stereo not drawn), on Histamine H1 receptor [4], the Alpha entry was “inactive”.
For `c1nc(CCCCCCCCCCCCN2CCCC2)c[nH]1`, the midpoint of inhibition on Histamine H1 receptor [1], the IC50, lay at 3980 nM. At Histamine H1 receptor [2], this compound returned an Alpha of -0.46.
Take `NCCc1c[nH]c(CCC(c2ccccc2)C2CCCCC2)n1` (stereo not drawn): the Alpha result at Histamine H1 receptor [4] is “inactive”.
Regarding `NCCCCCCCCCCCCCc1c[nH]cn1`, the Alpha at Histamine H1 receptor [2] is -0.84.
Compound `NCCCCCCCCCc1c[nH]cn1` had an IC50 against Histamine H1 receptor [1] of 2000 nM. Further, on Histamine H1 receptor [2], the Alpha is -0.72.
On the same counts, the results for `NCCc1ccccn1` are 1260 nM and 1.11.
On to `NCCc1c[nH]c(-c2cccc(Cl)c2)n1`, for which the midpoint of the response on Histamine H1 receptor [1], the EC50, lay at 2000 nM. The compound further displayed an Alpha on Histamine H1 receptor [2] of 1.28.
Regarding `NCCCCCCCCCCCCc1ccccn1`, the Alpha result at Histamine H1 receptor [5] is “inactive”.
For the compound `NCCc1c[nH]c(CCCC(c2ccccc2)c2ccccc2)n1`, at Histamine H1 receptor [2], the Alpha came to 0.02.
For `NCCCCCCCCCCc1ccccn1`, the Alpha entry at Histamine H1 receptor [5] is “inactive”.
Turning to `NCCc1c[nH]c(CC(c2ccccc2)c2ccccc2)n1`, the Alpha entry at Histamine H1 receptor [6] is “inactive”.
On to `NCCc1c[nH]cn1`, for which the Alpha on Histamine H1 receptor [2] is 1.
As to `NCCCCCCCCCCCCc1cccnc1`, the half-inhibitory concentration (IC50) on Histamine H1 receptor [1] was 1260 nM. This compound also gave an Alpha on Histamine H1 receptor [2] of -0.78.
On the same counts, the results for `NCCCCCCCCCc1ccccn1` are 7940 nM and -0.92.
As for `NCCCCCCCCCCCc1cnc[nH]1`, on Histamine H1 receptor [1], the midpoint of inhibition, the IC50, lay at 251 nM.
Take `c1ccc(C(CCc2nc(CCN3CCCC3)c[nH]2)c2ccccc2)cc1`: the Alpha result at Histamine H1 receptor [6] is “inactive”.
At Histamine H1 receptor [1], `c1nc(CCCCCCCCCCN2CCCC2)c[nH]1` had a half-maximal inhibitory concentration (IC50) of 398 nM. This compound also had an Alpha at Histamine H1 receptor [2] of -0.61.
Take `NCCc1c[nH]c(CCC(c2ccccc2)c2ccccc2)n1`: the Alpha at Histamine H1 receptor [2] came to 0.69.
Consider `NCCCCCCCCCCCCCCc1cnc[nH]1`, for which the IC50 at Histamine H1 receptor [1] was 2000 nM.
On to `NCCc1cnc(-c2cccc(C(F)(F)F)c2)[nH]1`, for which, on Histamine H1 receptor [1], the EC50 was 1000 nM.
`NCCCCCCCCCCCCCc1cnc[nH]1`: at Histamine H1 receptor [1], 1260 nM corresponded to half-maximal inhibition (IC50).
`NCCCCCCCCCCc1cccnc1` had an IC50 against Histamine H1 receptor [1] of 2510 nM. In addition, on Histamine H1 receptor [2], the Alpha was -0.76.
On Histamine H1 receptor [1], `NCCc1c[nH]c(-c2ccc(Cl)c(Cl)c2)n1` displayed an EC50 of 50100 nM. Further, the Alpha on Histamine H1 receptor [2] was 0.5.
Regarding `NCCCCCCCCCCCCc1ccncc1`, on Histamine H1 receptor [1], the IC50 was 398 nM. This compound had an Alpha at Histamine H1 receptor [2] of -0.67.
As to `c1nc(CCCCCCCCN2CCCC2)c[nH]1`, the Alpha on Histamine H1 receptor [2] was -0.99.
The same measure, in the same setting: to `NCCCCCCCCCCCc1c[nH]cn1` belongs -0.61.
As to `NCCCCCCCCCCc1ccncc1`, the half-maximal inhibitory concentration (IC50) at Histamine H1 receptor [1] was 2510 nM. On Histamine H1 receptor [2], this compound yielded an Alpha of -1.
Take `NCCCCCCCCCCCCCCc1c[nH]cn1`: the Alpha at Histamine H1 receptor [2] was -0.9.
On Histamine H1 receptor [1], `NCCCCCCCCCCCCc1c[nH]cn1` had a 50% inhibitory concentration (IC50) of 1000 nM. In addition, the Alpha at Histamine H1 receptor [2] is -0.62.
